Laboratory results taken from the NIST ThermoML archive (doi:10.1021/je034096z).
Numbers after ± are expanded uncertainties.

Settings: Liquid

COCC(C)O (stereo not given) [1-methoxy-2-propanol]
Settings | vapor or sublimation pressure [kPa]
347.62 K | 19.25 ± 0.038
352.64 K | 23.74 ± 0.04
353.15 K | 24.25 ± 0.39
357.89 K | 29.35 ± 0.042
362.93 K | 35.72 ± 0.045
363.15 K | 36.03 ± 0.42
368.03 K | 43.29 ± 0.048
373.15 K | 52.16 ± 0.47
373.22 K | 52.3 ± 0.052
378.01 K | 61.89 ± 0.055

CN1CCCC1=O [N-methylpyrrolidone]
Settings | vapor or sublimation pressure [kPa]
352.27 K | 1.285 ± 0.031
352.48 K | 1.297 ± 0.031
353.15 K | 1.344 ± 0.31
359.26 K | 1.823 ± 0.032
363.15 K | 2.193 ± 0.32
363.36 K | 2.217 ± 0.032
368.27 K | 2.777 ± 0.032
373.09 K | 3.444 ± 0.032
373.15 K | 3.456 ± 0.32
377.86 K | 4.229 ± 0.032

CC(O)CO (stereo not given) [1,2-propanediol]
Settings | vapor or sublimation pressure [kPa]
393.22 K | 8.198 ± 0.067
393.25 K | 8.207 ± 0.067
398.09 K | 10.23 ± 0.068
403.14 K | 12.77 ± 0.07
403.15 K | 12.77 ± 0.7
408.3 K | 15.89 ± 0.072
413.1 K | 19.36 ± 0.074
413.15 K | 19.39 ± 0.74
418.16 K | 23.68 ± 0.077
423.15 K | 28.69 ± 0.8
423.26 K | 28.81 ± 0.081

CCCCCCOCCOCCO [2-(2-hexyloxyethoxy)ethanol]
Settings | vapor or sublimation pressure [kPa]
402.96 K | 1.111 ± 0.041
403.01 K | 1.117 ± 0.041
403.15 K | 1.124 ± 0.63
408.02 K | 1.435 ± 0.041
413.15 K | 1.831 ± 0.63
413.2 K | 1.835 ± 0.041
418.17 K | 2.293 ± 0.041
422.87 K | 2.825 ± 0.041
423.15 K | 2.858 ± 0.041
